We go through five molecules from ChEMBL document CHEMBL1147500, “A prodrug approach to COX-2 inhibitors with methylsulfone” (Bioorg Med Chem Lett, 2004).

A short description of data set [1]: Tmax value at a dose of 10 mg/kg in male SD rats. It is filed as ADME, organism-based. Also on record: dose 10 mg/kg. The conditions noted are these: rat, in vivo.
Data set [2] in a line: Tmax value at a dose of 100 mg/kg in male SD rats. It is filed as ADME, organism-based. The conditions noted are these: rat, in vivo. Also on record: dose 100 mg/kg.
A short description of data set [3]: Tmax value at a dose of 50 mg/kg in male SD rats. It is filed as ADME, organism-based. Also on record: dose 50 mg/kg. The conditions noted are these: rat, in vivo.
Data set [4] in a line: Area under curve (0-24 hr) at a dose of 10 mg/kg in male SD rats. It is filed as ADME, organism-based. Also on record: time < 24 hr, dose 10 mg/kg. The conditions noted are these: rat, in vivo.
The nature of data set [5]: Area under curve (0-24 hr) at a dose of 100 mg/kg in male SD rats. The data set is classed as ADME, organism-based. Also on record: time < 24 hr, dose 100 mg/kg. The conditions noted are these: rat, in vivo.
Data set [6] is described as follows: Area under curve (0-24 hr) at a dose of 50 mg/kg in male SD rats. It is filed as ADME, organism-based. The conditions noted are these: rat, in vivo. On the set-up: time < 24 hr, dose 50 mg/kg.
The nature of data set [7]: Cmax value at a dose of 10 mg/kg in male SD rats. The conditions noted are these: rat, in vivo. It is filed as ADME, organism-based. On the set-up: dose 10 mg/kg.
The nature of data set [8]: Cmax value at a dose of 100 mg/kg in male SD rats. It is filed as ADME, organism-based. On the set-up: dose 100 mg/kg. The conditions noted are these: rat, in vivo.
Data set [9] can be described thus: Cmax value at a dose of 50 mg/kg in male SD rats. Also on record: dose 50 mg/kg. The conditions noted are these: rat, in vivo. The data set is classed as ADME, organism-based.
The target in data set [10] is T1, Prostaglandin G/H synthase 1 (Mus musculus, UniProt P22437).
T1 sequence (P22437 whole entry): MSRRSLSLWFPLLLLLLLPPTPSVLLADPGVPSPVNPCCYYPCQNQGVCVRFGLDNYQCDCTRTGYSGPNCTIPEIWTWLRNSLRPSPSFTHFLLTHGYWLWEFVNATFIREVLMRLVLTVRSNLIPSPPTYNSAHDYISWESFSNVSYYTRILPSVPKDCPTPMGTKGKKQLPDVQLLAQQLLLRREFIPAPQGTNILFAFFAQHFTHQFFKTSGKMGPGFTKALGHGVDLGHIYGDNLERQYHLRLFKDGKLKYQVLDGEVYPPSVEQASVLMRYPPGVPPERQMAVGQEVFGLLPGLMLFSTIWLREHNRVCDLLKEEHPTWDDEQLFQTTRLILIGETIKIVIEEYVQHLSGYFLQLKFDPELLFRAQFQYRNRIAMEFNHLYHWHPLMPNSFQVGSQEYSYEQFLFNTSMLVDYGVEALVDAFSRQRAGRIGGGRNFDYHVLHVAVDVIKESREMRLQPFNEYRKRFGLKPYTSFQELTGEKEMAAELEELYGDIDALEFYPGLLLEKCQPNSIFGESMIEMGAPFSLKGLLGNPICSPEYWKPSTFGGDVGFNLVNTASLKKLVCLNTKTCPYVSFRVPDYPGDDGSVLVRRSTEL
Description: Inhibitory concentration against prostaglandin G/H synthase 1 in mouse peritoneal macrophages.

Data set [11] has as its system Rattus norvegicus. Briefly: Effective dose against adjuvant-induced arthritis (AA) in SD rats upon peroral administration (QD). The data set is classed as functional. The conditions noted are these: po.
Data set [12] can be described thus: Cmax upon oral administration in male Beagle dog at 10 mg/kg. On the set-up: dose 10 mg/kg, route oral. The conditions noted are these: in vivo. The data set is classed as ADME, organism-based, Canis lupus familiaris.
In data set [13] the target is T2, Prostaglandin G/H synthase 2 (Mus musculus, UniProt Q05769).
T2 sequence (Q05769 whole entry): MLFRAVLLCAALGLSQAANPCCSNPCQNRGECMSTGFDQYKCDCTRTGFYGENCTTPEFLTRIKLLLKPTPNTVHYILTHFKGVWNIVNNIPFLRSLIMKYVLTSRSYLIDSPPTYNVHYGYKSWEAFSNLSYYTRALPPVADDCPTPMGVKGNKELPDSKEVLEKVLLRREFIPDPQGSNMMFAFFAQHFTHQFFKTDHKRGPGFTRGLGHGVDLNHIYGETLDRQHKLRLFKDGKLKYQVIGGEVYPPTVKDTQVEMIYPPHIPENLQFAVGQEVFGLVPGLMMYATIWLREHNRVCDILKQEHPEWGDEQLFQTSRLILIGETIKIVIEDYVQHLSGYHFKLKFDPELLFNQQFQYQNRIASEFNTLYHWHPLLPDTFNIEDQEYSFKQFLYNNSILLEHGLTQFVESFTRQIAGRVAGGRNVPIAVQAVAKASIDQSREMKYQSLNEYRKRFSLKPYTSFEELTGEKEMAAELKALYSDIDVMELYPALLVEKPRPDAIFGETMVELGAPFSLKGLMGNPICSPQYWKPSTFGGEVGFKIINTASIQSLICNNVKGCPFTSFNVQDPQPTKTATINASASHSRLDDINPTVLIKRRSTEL
Description: Inhibitory concentration against prostaglandin G/H synthase 2 in mouse peritoneal macrophages.

The subject of data set [14] is Rattus norvegicus. Description: Inhibition of adjuvant-induced arthritis (AA) in SD rats upon peroral administration (BID) at 0.3 mg/kg/day. It is filed as functional. The conditions noted are these: route oral.
Data set [15] has as its system Rattus norvegicus. Briefly: Effective dose against adjuvant-induced arthritis (AA) in male lewis rats upon peroral administration (bid). The data set is classed as functional. The conditions noted are these: po.
The test system of data set [16] is Rattus norvegicus. Description: Inhibition of adjuvant-induced arthritis (AA) in SD rats upon peroral administration (BID) at 0.1 mg/kg/day. The data set is classed as functional. The conditions noted are these: route oral.

Usually Tmax stands for the time from dosing to the highest level. A word on the AUC(0-t): it is the area under the concentration-time curve up to a stated or last time point. By Cmax is commonly meant the maximum level reached in the sampled fluid or tissue. In general, IC50 refers to the point on the concentration scale where inhibition reaches its midpoint. By ED50 is commonly meant the dose at which the effect has come halfway, by size or by number of responders. Regarding `CC1(C)OC(c2ccc(S(C)(=O)=O)cc2)=C(c2cc(F)cc(F)c2)C1=O`, the values for the Tmax in data set [1], in data set [2] and in data set [3] were 2 h, 5 h and 4.3 h, respectively. The AUC(0-t) at 24 h amounted to 23100 ng·h/mL in data set [4], 487000 ng·h/mL in data set [5] and 359000 ng·h/mL in data set [6]. For the same molecule, the Cmax in data set [7] came to 2580 ng/mL; in data set [8], 24900 ng/mL; in data set [9] it was 11700 ng/mL; in data set [12] it was 130 ng/mL. Further, the figures for the IC50 in data set [10] and in data set [13] were 13.2 µM and 0.0529 µM, respectively. For the same molecule, in data set [11], the ED50 was determined as 0.03 mg/kg/day.
As usually defined, the inhibition in vivo is the percentage by which the read-out fell short of the control. Take `COc1ccc2c(c1)c(CC(=O)O)c(C)n2C(=O)c1ccc(Cl)cc1` [INDOMETHACIN]: in [14], the inhibition in vivo at 0.3 mg/kg/day amounted to 60%.
With `C[S+]([O-])c1ccc(C2=C(c3cc(F)cc(F)c3)C(=O)C(C)(C)O2)cc1` (stereo not drawn), the ED50 in data set [15] is approximately 0.2 mg/kg/day. The inhibition in vivo at 0.1 mg/kg/day in [16] was determined as 40%. The inhibition in vivo at 0.3 mg/kg/day in data set [14] was 76%.
As for `C[S+]([O-])c1ccc(C2=C(c3cccc(Cl)c3)C(=O)C(C)(C)O2)cc1` (stereo not drawn), the Tmax in data set [1] turned out to be 0.5 h. In addition, the AUC(0-t) at 24 h in data set [4] turned out to be 3610 ng·h/mL. Further, the Cmax in data set [7] came to 460 ng/mL.
The corresponding values for `CC1(C)OC(c2ccc(S(C)(=O)=O)cc2)=C(c2cccc(Cl)c2)C1=O` are 1.5 h, 12700 ng·h/mL and 1390 ng/mL.
